From patent US11613552B2, “Pharmaceutical agents, compositions, and methods relating thereto” (Alltech, Inc., priority 2017, dated 2023)

Key:
Glut4 = assay: QRT-PCR of Glut4 mRNA in livers of Lepr^db/db mice; type: in vivo, mouse; conditions: 25 μg selenium/kg ip daily, 52 days (FIG. 15)
Procedure: Male Lepr^db/db mice (C57BL/6J strain, purchased from The Jackson Laboratory) at postnatal day 38 were intraperitoneally injected daily with physiological saline ([…]) containing 0.2% DMSO, Compound #43, or Compound #50 (25 μg selenium of each compound per kilogram body weight, diluted in sterile physiological saline) for 52 days. After treatment, livers were collected and subjected to RNA analysis.
Total liver RNA from saline- or Compound #43-treated Lepr^db/db mice was isolated using a Qiagen RNAeasy RNA isolation kit according to the Manufacturer's protocol. Total RNA from cultured cells was isolated using Trizol (Invitrogen) according to the manufacturer's protocol, and then incubated with DNase I to remove any potential contaminating genomic DNA. RNA samples were subjected to real-time PCR analysis using Applied-Bioscience's RT kit and predesigned Taqman probes (Invitrogen), as described previously (Lan et al EMBO J 2003). Data were normalized by Actin B (Actb) mRNA levels in each sample and are presented as mean±SEM of 3-5 samples.

H4IIE cells = assay: Cell viability (CellTiter96 AQueous One) in H4IIE cells; type: cell-based, rat; conditions: tested doses
Procedure: After the above treatments, 50 μl of culture media were collected, and subjected to glucose analysis using Molecular Probes Amplex Red glucose assay kit (Cat #A22189) according to the manufacturer's protocol. Cell numbers or viability in the culture plate after the above compound treatments were determined using Promega's CellTiter96® AQueous One Solution Cell Proliferation Assay kits, according to the manufacturer's protocol and instructions. In brief, after removing 50 μl of culture media for glucose assay, cells were incubated with AQueous One solution (25 μl stock solution and 50 μl prewarmed PBS/per well) at 37° C. for 1 hour, and the absorbance of OD490 nm in each sample was determined by the Bio-Tek microplate reader. Cell viability in culture wells were determined by the subtraction of OD490 nm in cultured cells with the OD490 nm in plain culture media (without seeding of cells). Glucose production in the culture cells were obtained by normalizing the glucose concentration in culture media by cell viability in each well. At least 3 samples per each treatment were examined for the above analysis. Data are presented as Mean±SEM of those samples. Experiments were repeated at least twice.

Insrβ = target: T1, Insrβ (Mus musculus, UniProt P15208); assay: ELISA of phospho-Insrβ in livers of Lepr^db/db mice; type: in vivo; conditions: 0.136 mg/kg ip daily
T1 construct: gastrocnemius skeletal muscle and liver samples were collected and stored at −80° C; from tissue; host or cells: gastrocnemius skeletal muscle (A22) and liver (A24) of Lepr db/db mice
T1 sequence (P15208 753-1372 limits assumed): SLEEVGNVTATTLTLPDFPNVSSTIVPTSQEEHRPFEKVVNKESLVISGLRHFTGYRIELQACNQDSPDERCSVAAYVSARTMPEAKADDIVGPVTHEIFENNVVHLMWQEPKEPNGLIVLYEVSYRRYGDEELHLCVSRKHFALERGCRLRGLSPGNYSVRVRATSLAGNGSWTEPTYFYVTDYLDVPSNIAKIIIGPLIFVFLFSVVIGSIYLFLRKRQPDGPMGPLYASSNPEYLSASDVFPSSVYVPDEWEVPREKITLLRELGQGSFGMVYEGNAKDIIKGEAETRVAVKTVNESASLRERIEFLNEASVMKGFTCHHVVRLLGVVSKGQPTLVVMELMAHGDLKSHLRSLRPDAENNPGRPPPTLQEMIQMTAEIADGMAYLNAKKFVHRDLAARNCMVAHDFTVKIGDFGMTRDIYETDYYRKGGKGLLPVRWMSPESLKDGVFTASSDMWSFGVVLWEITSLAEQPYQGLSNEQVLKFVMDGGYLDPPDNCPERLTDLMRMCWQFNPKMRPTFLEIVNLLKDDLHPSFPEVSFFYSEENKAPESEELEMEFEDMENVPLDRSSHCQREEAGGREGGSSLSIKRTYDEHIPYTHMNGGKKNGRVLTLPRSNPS
T1 sequence (P15208 28-748 partner limits assumed): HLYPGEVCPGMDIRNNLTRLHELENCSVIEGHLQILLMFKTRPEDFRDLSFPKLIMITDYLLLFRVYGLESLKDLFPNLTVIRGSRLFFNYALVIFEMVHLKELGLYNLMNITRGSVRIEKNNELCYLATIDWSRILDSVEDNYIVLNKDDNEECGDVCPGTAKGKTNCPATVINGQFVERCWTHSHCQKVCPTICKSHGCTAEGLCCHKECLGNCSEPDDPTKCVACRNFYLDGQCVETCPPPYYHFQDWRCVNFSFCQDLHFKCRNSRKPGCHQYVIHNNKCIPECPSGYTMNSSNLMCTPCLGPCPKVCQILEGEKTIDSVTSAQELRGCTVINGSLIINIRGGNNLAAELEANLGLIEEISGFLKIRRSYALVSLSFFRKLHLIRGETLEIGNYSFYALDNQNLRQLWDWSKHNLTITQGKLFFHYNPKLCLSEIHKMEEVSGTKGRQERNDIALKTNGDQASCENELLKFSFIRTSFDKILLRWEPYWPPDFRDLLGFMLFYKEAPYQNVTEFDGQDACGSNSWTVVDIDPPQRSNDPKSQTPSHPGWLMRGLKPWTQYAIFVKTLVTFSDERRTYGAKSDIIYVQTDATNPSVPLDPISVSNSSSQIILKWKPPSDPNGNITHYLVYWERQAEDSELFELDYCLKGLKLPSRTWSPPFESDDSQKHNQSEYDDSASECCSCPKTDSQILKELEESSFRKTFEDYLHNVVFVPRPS
Procedure: Male Lepr^db/db mice (C57BL/6J strain, purchased from The Jackson Laboratory) at postnatal day 38 were intraperitoneally injected daily with physiological saline ([…]) containing 0.2% DMSO, or 0.136 mg of Compound #43 per kilogram body weight, diluted in the sterile physiological saline) for 52 days. After the treatment, gastrocnemius skeletal muscle and liver samples were collected and stored at −80° C.
Frozen skeletal muscle and liver tissues were minced in sterile ice-old PBS containing complete proteinase and phosphatase inhibitors (Thermo-Fisher Scientific, Waltham, Mass.) and subjected to homogenization using a tissue homogenizer (Thermo-Fisher Scientific, Waltham, Mass.). These tissue homogenates were diluted in Themo-Fisher's premade RIPA buffer (1 part homogenate/2 part of RIPA buffer) containing complete proteinase/phosphatase inhibitors to extract the proteins. Proteins in the homogenates were extracted in RIPA buffer at 4° C. overnight. These overnight-extracted protein/tissue lysates were centrifuged at 12000×g for 30 min at 4° C., and the protein levels in the supernatant of these tissue lysates were determined using the Pierce Micro-BCA protein assay kit (Thermo Scientific-Piece Biotechnology, Rockford, Ill.) according to the manufacturer's protocol. […]

SMILES: C[Se]C[C@H]1O[C@@H](n2cnc3c(N)ncnc32)C(OC(C)=O)C1OC(C)=O (stereo partly shown) [Compound #43, Adenosine, 5′-Se-methyl-5′-selino-, 2′,3′-diacetate]
- increase in Glut4 mRNA expression levels in the liver (Glut4): 5 fold
- toxic effect on cell viability (H4IIE cells): No toxic effect
- increase of phosphorylated Insrβ at Tyrosine 1146 in liver (Insrβ; 52 days (FIG. 22A)): ~2.9 fold
- increase of phosphorylated Insrβ at Tyrosine 1150/1151 in liver (Insrβ; 52 days (FIG. 22B)): ~2.95 fold
